This is an account of results in US4190666A, “Anti-inflammatory 4,5-diarly-2-(substituted-thio)imidazoles and their corresponding sulfoxides and sulfones” (E. I. Du Pont de Nemours and Company, priority 1978, dated 1980).

Molecules are shown by their SMILES.

The test system of one test is established adjuvant-induced arthritis in rats. Put plainly: Established adjuvant-induced arthritis in rats (therapeutic, paw volume). The class given is in vivo, Charles River Lewis male rats. The following applies: 1.0 mg./kg., oral.
For `Fc1cccc(-c2[nH]c(SC(F)(F)C(F)F)nc2-c2ccccc2)c1` [Example 120], the “percent (%) reduction in paw volume measured at the indicated dose” value (“percent (%) reduction in paw volume” below) is recorded as 37%.

The test is the same for the next values; noted with them: 10 mg./kg., oral.
Consider `Cc1ccc(-c2[nH]c(S(=O)(=O)C(F)(F)C(F)F)nc2-c2ccc(Cl)cc2)cc1` [Example 131], for which the “percent (%) reduction in paw volume” value is given as 36%.
Same read-out and setting: the same measure for `CS(=O)(=O)c1nc(-c2ccccc2)c(-c2cccc(Cl)c2)[nH]1` [Example 149]: 55%; for `CCCCSc1nc(-c2ccc(F)cc2)c(-c2ccc(F)cc2)[nH]1` [Example 108]: 77%; for `CCOc1ccc(-c2[nH]c(SC(F)(F)C(F)F)nc2-c2ccccc2)cc1` [Example 118]: 32%.

The same test, now with this note: 50 mg./kg., oral.
For `CS(=O)(=O)c1nc(-c2ccccc2)c(-c2ccc(Cl)c(Cl)c2)[nH]1` [Example 145], the “percent (%) reduction in paw volume” value is 59%.
On the same count and under the same terms, then `CCCCS(=O)(=O)c1nc(-c2ccc(OC)cc2)c(-c2ccc(OC)cc2)[nH]1` [Example 129], with 71%.
Still for that read-out and setting: then `CCOc1ccc(-c2[nH]c(SC)nc2-c2ccccc2)cc1` [Example 115], with 33%; and `CSc1nc(-c2ccccc2)c(-c2cccc(Cl)c2)[nH]1` [Example 114], with 45%.

The test is the same for the next values; noted with them: 75 mg./kg., oral.
On to `CS(=O)(=O)c1nc(-c2ccccc2)c(-c2cccc(F)c2)[nH]1` [Example 147], for which the “percent (%) reduction in paw volume” value is 32%.
On the same count and under the same terms, the same measure for `C[S+]([O-])c1nc(-c2ccccc2)c(-c2cccc(Cl)c2)[nH]1` (centres unmarked) [Example 139]: 77%.

Staying with this test, now noted: 100 mg./kg., oral.
Regarding `C[S+]([O-])c1nc(-c2ccccc2)c(-c2cccc(F)c2)[nH]1` (centres unmarked) [Example 148], the “percent (%) reduction in paw volume” value was determined as 67%.

Still in this test, the particulars now being: Rattus norvegicus, po, established arthritis, 7 daily doses, ED50% decrease from control paw volume, Tables I-III, read-out: Adjuvant Arthritis (ED50%).
What is called ED50 is the dose at which the effect has come halfway, by size or by number of responders. With `COc1cccc(-c2nc(S(=O)(=O)C(F)(F)C(F)F)[nH]c2-c2cccc(OC)c2)c1` [Example 84], the ED50 came to 4 mg/kg.
Still for that read-out and setting: the same measure for `Fc1ccc(-c2nc(SC(F)(F)C(F)F)[nH]c2-c2ccc(C(F)(F)F)cc2)cc1` [Example 48]: 1.5 mg/kg.
Same read-out and setting: then `Fc1ccc(-c2nc(SC(F)F)[nH]c2-c2ccc(F)cc2)cc1` [Example 32], with 0.42 mg/kg.
Same read-out and setting: then `COc1ccc(-c2nc(S(=O)(=O)CC(C)=O)[nH]c2-c2ccc(OC)cc2)cc1` [Example 100], with 18 mg/kg.
`COc1ccc(-c2nc(S(=O)(=O)CS(C)(=O)=O)[nH]c2-c2ccc(OC)cc2)cc1` [Example 99]: the ED50 amounted to 54 mg/kg.
On the same count and under the same terms, then `FC(F)C(F)(F)Sc1nc(-c2ccccc2)c(-c2ccc(Cl)c(Cl)c2)[nH]1` [Example 119], with 3 mg/kg; and `CCS(=O)(=O)c1nc(-c2ccc(OC)cc2)c(-c2ccc(OC)cc2)[nH]1` [Example 14, 2-Ethylsulfonyl-4,5-bis(4-methoxyphenyl)imidazole], with 5.2 mg/kg; and `COc1ccc(-c2nc(S(=O)(=O)C(C)C)[nH]c2-c2ccc(OC)cc2)cc1` [Example 63], with 30 mg/kg.
On the same count and under the same terms, then `O=S(=O)(c1nc(-c2ccc(Cl)cc2)c(-c2ccc(Cl)cc2)[nH]1)C(F)F` [Example 77], with 0.35 mg/kg; and `O=S(=O)(c1nc(-c2ccccc2)c(-c2cccc(F)c2)[nH]1)C(F)(F)C(F)F` [Example 143], with 0.06 mg/kg; and `O=S(=O)(c1nc(-c2ccc(F)cc2)c(-c2ccccc2)[nH]1)C(F)(F)C(F)F` [Example 92, 4(or 5)-(4-fluorophenyl)-5(or 4)-phenyl-2-(1,1,2,2-tetrafluoroethylsulfonyl)imidazole], with 0.027 mg/kg.
For the molecule `FC(F)(F)CSc1nc(-c2ccc(Cl)cc2)c(-c2ccc(Cl)cc2)[nH]1` [Example 7, 4,5-bis(4-Chlorophenyl)-2-(2,2,2-trifluoroethylthio)imidazole], the ED50 worked out at 5 mg/kg.
The same measure, in the same setting: the same measure for `COc1ccc(-c2nc(SCC(C)=O)[nH]c2-c2ccc(OC)cc2)cc1` [Example 16, 2-Acetonylthio-4,5-bis(4-methoxyphenyl)imidazole]: 9.4 mg/kg.
Still for that read-out and setting: the same measure for `CSc1nc(-c2ccc3c(c2)OCO3)c(-c2ccc3c(c2)OCO3)[nH]1` [Example 37]: 20 mg/kg.
Still for that read-out and setting: then `O=S(=O)(c1nc(-c2cccc(Cl)c2)c(-c2cccc(Cl)c2)[nH]1)C(F)(F)C(F)F` [Example 93], with 0.16 mg/kg; and `CS(=O)(=O)c1nc(-c2ccc(Cl)cc2)c(-c2ccc(F)cc2)[nH]1` [Example 79], with 2.8 mg/kg; and `CSc1nc(-c2ccc(Cl)cc2)c(-c2ccc(C(F)(F)F)cc2)[nH]1` [Example 36], with 3.6 mg/kg.
As to `COc1ccc(-c2nc(SC(F)(F)F)[nH]c2-c2ccc(OC)cc2)cc1` [Example 107], the ED50 came to 1.5 mg/kg.
The same measure, in the same setting: then `COc1ccc(-c2nc([S+]([O-])CC(C)=O)[nH]c2-c2ccc(OC)cc2)cc1` (centres unmarked) [Example 98], with 56 mg/kg; and `CS(=O)(=O)c1nc(-c2ccc(Cl)cc2)c(-c2ccc(C(F)(F)F)cc2)[nH]1` [Example 88], with 2.2 mg/kg.
As for `O=S(=O)(c1nc(-c2ccccc2Cl)c(-c2ccccc2Cl)[nH]1)C(F)(F)C(F)F` [Example 91], the median effective dose (ED50) was 0.8 mg/kg.
The same measure, in the same setting: the same measure for `CCCS(=O)(=O)c1nc(-c2ccc(OC)cc2)c(-c2ccc(OC)cc2)[nH]1` [Example 62]: 9 mg/kg; for `C=CC[S+]([O-])c1nc(-c2ccc(OC)cc2)c(-c2ccc(OC)cc2)[nH]1` (centres unmarked) [Example 54]: 11 mg/kg.
Still for that read-out and setting: the same measure for `Fc1ccc(-c2nc(SC(F)(F)C(F)(F)F)[nH]c2-c2ccc(F)cc2)cc1` [Example 110]: 0.2 mg/kg.
As to `COc1ccc(-c2nc(SC(F)(F)F)[nH]c2-c2ccc(F)cc2)cc1` [Example 109], the ED50 worked out at 2.7 mg/kg.
Same read-out and setting: then `[O-][S+](c1nc(-c2ccccc2)c(-c2ccccc2)[nH]1)C(F)(F)C(F)F` (centres unmarked) [Example 66], with 0.18 mg/kg.
Still for that read-out and setting: then `O=S(=O)(c1nc(-c2ccc(F)cc2)c(-c2ccc(F)cc2)[nH]1)C(F)(F)F` [Example 104, 4,5-bis(p-fluorophenyl)-2-trifluoromethylsulfonylimidazole], with 0.015 mg/kg.
The same measure, in the same setting: then `CCCSc1nc(-c2ccc(OC)cc2)c(-c2ccc(OC)cc2)[nH]1` [Example 27], with 9 mg/kg; and `O=S(=O)(c1nc(-c2ccccc2)c(-c2ccccc2)[nH]1)C(F)(F)C(F)Br` (centres unmarked) [Example 126], with 0.85 mg/kg; and `COc1ccc(-c2nc(SC(F)(F)C(F)F)[nH]c2-c2ccc(OC)cc2)cc1` [Example 38], with 4.2 mg/kg.
With `O=S(=O)(c1nc(-c2ccccc2)c(-c2ccccc2)[nH]1)C(F)F` [Example 75], the ED50 was 0.35 mg/kg.
Still for that read-out and setting: then `O=S(=O)(c1nc(-c2ccccc2)c(-c2ccccc2)[nH]1)C(F)(F)C(Cl)Cl` [Example 76], with 1.5 mg/kg; and `O=S(=O)(c1nc(-c2ccccc2)c(-c2ccc(Cl)c(Cl)c2)[nH]1)C(F)(F)C(F)F` [Example 137, 4(or 5)-(3,4-dichlorophenyl)-5(or 4)-phenyl-2-(1,1,2,2-tetrafluoroethylsulfonyl)imidazole], with 0.25 mg/kg.
Same read-out and setting: the same measure for `CN(C)c1ccc(-c2nc(SC(F)(F)C(F)F)[nH]c2-c2ccccc2)cc1` [Example 53]: 2.5 mg/kg; for `[O-][S+](c1nc(-c2ccc(Cl)cc2)c(-c2ccc(Cl)cc2)[nH]1)C(F)(F)C(F)F` (centres unmarked) [Example 68]: 0.2 mg/kg.
The same measure, in the same setting: then `FC(F)C(F)(F)Sc1nc(-c2ccccc2Cl)c(-c2cccc(Cl)c2)[nH]1` [Example 50], with 1.2 mg/kg.
As to `FC(F)C(F)(F)Sc1nc(-c2ccc3c(c2)OCO3)c(-c2ccc3c(c2)OCO3)[nH]1` [Example 46], the ED50 was 10 mg/kg.
Same read-out and setting: then `C=CCSc1nc(-c2ccc(OC)cc2)c(-c2ccc(OC)cc2)[nH]1` [Example 11, 2-Allylthio-4,5-bis(4-methoxyphenyl)imidazole], with 22 mg/kg; and `CS(=O)(=O)c1nc(-c2ccc(F)cc2)c(-c2ccc(F)cc2)[nH]1` [Example 72], with 4.5 mg/kg; and `COc1ccc(-c2nc(SC(F)F)[nH]c2-c2ccc(OC)cc2)cc1` [Example 29], with 1.8 mg/kg.
Still for that read-out and setting: then `O=S(=O)(CC(F)(F)F)c1nc(-c2ccc(Cl)cc2)c(-c2ccc(Cl)cc2)[nH]1` [Example 9, 4,5-bis(4-Chlorophenyl)-2-(2,2,2-trifluoroethylsulfonyl)imidazole], with 4.5 mg/kg; and `O=S(=O)(CC(F)(F)F)c1nc(-c2ccccc2)c(-c2ccccc2)[nH]1` [Example 3, 4,5-Diphenyl-2-(2,2,2-trifluoroethylsulfonyl)imidazole], with 12 mg/kg; and `CSc1nc(-c2ccc(Cl)cc2)c(-c2ccc(Cl)cc2)[nH]1` [Example 26, 4,5-bis(4-chlorophenyl)-2-methylthioimidazole], with 3 mg/kg.
Same read-out and setting: the same measure for `O=S(=O)(CC(F)(F)F)c1nc(-c2ccc(F)cc2)c(-c2ccc(F)cc2)[nH]1` [Example 70]: 3.5 mg/kg.
Take `[O-][S+](CC(F)(F)F)c1nc(-c2ccc(Cl)cc2)c(-c2ccc(Cl)cc2)[nH]1` (centres unmarked) [Example 8, 4,5-bis(4-chlorophenyl)-2-(2,2,2-trifluoroethylsulfinyl)imidazole]: the median effective dose (ED50) turned out to be 3 mg/kg.

The same test, now with this note: established arthritis, oral, 7 daily doses; ED50% decrease from control paw volume; Tables I-III.
With `COc1ccc(-c2nc(SC(F)(F)C(F)Br)[nH]c2-c2ccc(OC)cc2)cc1` (centres unmarked) [Example 51, 2-(2-bromo-1,1,2-trifluoroethylthio)-4,5-bis(4-methoxyphenyl)imidazole], the “Adjuvant Arthritis (ED50%)” value was determined as 10 mg/kg.
Regarding `COc1ccc(-c2nc(SC(F)(F)C(F)I)[nH]c2-c2ccc(OC)cc2)cc1` (centres unmarked) [Example 116], the “Adjuvant Arthritis (ED50%)” value amounted to 30 mg/kg.
In the case of `FC(Br)C(F)(F)Sc1nc(-c2ccccc2)c(-c2ccccc2)[nH]1` (centres unmarked) [Example 52, 2-(2-bromo-1,1,2-trifluoroethylthio)-4,5-diphenylimidazole], the “Adjuvant Arthritis (ED50%)” value came to 11 mg/kg.
As to `FC(Cl)C(F)(F)Sc1nc(-c2ccccc2)c(-c2ccccc2)[nH]1` (centres unmarked) [Example 41], the “Adjuvant Arthritis (ED50%)” value amounted to 3.9 mg/kg.

The test is the same for the next values; noted with them: established arthritis, oral, 7 daily doses; ED50% decrease from control paw volume; Tables I-III; listed as 122.
In the case of `CN(C)c1ccc(-c2nc(SC(F)(F)C(F)F)[nH]c2-c2ccccc2)cc1` [Example 53], the “Adjuvant Arthritis (ED50%)” value came out at 4.0 mg/kg.
